Measured values published in ChEMBL document CHEMBL1201862, “PubChem BioAssay data set” (2004).
Calls of active or inactive are those of the source.

Experiments:
[1] = molecular target: Eukaryotic translation initiation factor 4H (Homo sapiens, UniProt Q15056); assay: eIF4H inhibition in translation initiation, SAR follow-up (AID 435011); type: functional
[2] = molecular target: T1, Hexokinase HKDC1 (Homo sapiens, UniProt Q2TB90); assay: HKDC1 hexokinase inhibitors, dose response, biochemical, W721R variant (AID 504729); type: functional
T1 sequence (Q2TB90 whole entry): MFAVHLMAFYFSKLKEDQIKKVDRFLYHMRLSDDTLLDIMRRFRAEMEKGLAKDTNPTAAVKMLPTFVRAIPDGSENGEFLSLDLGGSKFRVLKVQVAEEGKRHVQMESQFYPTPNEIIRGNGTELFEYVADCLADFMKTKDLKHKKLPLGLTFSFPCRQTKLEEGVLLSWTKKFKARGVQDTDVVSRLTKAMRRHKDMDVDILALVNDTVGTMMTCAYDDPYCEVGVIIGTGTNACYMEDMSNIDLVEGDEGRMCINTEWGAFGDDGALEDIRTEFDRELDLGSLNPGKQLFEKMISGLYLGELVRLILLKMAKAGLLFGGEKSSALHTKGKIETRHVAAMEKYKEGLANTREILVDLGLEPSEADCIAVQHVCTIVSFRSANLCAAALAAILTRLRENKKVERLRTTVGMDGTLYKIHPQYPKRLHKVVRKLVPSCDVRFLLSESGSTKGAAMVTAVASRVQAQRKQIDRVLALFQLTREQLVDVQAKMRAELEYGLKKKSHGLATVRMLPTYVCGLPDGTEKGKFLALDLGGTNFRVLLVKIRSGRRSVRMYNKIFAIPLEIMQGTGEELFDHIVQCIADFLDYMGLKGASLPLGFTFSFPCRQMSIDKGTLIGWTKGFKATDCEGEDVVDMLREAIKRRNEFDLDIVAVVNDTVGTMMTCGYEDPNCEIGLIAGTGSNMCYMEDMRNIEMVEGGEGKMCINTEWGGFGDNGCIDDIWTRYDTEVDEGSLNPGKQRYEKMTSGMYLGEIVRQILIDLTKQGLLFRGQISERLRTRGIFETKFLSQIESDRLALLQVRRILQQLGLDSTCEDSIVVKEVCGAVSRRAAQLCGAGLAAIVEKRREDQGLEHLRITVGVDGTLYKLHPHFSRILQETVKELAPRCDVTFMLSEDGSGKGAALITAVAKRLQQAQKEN

[3] = molecular target: Polyadenylate-binding protein 1 (Homo sapiens, UniProt P11940); assay: PABP inhibition in translation initiation, SAR follow-up (AID 435018); type: functional
[4] = molecular target: T2, Short transient receptor potential channel 4 (Mus musculus, UniProt Q9QUQ5); assay: mouse TRPC4 channel activators, dose response, cell-based, HEK293 TRPC4/mu-opioid, Fluo-4 calcium (AID 434937); type: functional
T2 sequence (Q9QUQ5 whole entry): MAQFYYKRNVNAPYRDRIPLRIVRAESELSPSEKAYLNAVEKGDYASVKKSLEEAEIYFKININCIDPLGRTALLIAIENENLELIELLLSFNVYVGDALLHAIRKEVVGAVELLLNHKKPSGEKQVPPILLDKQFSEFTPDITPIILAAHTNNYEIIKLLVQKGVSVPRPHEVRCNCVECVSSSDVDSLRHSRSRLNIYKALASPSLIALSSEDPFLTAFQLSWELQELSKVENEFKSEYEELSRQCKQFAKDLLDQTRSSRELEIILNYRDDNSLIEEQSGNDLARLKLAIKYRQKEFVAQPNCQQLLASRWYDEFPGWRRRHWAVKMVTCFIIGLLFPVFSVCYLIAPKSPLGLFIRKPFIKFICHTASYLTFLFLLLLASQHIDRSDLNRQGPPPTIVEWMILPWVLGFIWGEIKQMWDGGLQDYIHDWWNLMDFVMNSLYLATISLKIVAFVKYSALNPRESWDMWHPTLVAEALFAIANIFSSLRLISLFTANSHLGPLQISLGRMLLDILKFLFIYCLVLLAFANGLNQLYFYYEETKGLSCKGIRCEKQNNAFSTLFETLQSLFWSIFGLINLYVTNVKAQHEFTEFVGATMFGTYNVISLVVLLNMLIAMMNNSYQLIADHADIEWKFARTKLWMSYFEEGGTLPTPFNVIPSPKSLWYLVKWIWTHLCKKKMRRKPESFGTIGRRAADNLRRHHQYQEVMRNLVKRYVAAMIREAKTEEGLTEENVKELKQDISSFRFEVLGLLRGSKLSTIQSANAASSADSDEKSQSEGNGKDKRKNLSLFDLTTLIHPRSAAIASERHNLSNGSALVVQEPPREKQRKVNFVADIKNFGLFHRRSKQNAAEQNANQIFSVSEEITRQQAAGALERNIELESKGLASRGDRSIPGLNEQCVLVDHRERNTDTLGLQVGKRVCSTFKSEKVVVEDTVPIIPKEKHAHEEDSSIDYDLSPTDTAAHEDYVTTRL

[5] = test system: HEK293; assay: cells; type: functional, cell-based; details: Homo sapiens
[6] = molecular target: T3, Streptokinase A (Streptococcus pyogenes serotype M1, UniProt P10520); assay: S. pyogenes streptokinase expression inhibitors, potency, dose response, plasminogen activation absorbance, OD405 (AID 1914); type: functional, Streptococcus pyogenes M1 GAS;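 also: secreted streptokinase activity via plasminogen activation per viability signal from cell pellet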
T3 sequence (P10520 whole entry): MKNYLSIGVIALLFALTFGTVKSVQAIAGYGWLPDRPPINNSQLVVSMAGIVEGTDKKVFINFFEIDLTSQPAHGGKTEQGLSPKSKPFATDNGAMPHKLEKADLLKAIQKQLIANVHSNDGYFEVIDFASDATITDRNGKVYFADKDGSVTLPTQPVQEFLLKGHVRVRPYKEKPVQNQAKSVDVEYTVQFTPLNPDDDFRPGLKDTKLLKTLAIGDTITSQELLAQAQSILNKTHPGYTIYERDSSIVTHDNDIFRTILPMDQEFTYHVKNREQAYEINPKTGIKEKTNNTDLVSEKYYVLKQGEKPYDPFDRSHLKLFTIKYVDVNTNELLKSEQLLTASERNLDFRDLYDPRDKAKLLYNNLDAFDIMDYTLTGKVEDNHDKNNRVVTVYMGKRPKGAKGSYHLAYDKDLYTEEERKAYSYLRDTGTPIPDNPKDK

[7] = test system: HEK293; assay: cells; type: functional, cell-based; details: Homo sapiens; remark: listed apart in the source
[8] = test system: Streptococcus; assay: Group A Streptococcus viability loss, dose response, counter-screen for streptokinase expression inhibitor project, luminescence, BacTiterGlo (AID 1915); type: functional, organism-based;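 also: potency for reduction of bacterial viability or growth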
[9] = test system: HEK293; assay: NOD1 signaling inhibitors, primary screen, cell-based, luminescence, uHTS (AID 1578); type: functional; details: Homo sapiens
[10] = test system: HEK293; assay: cells; type: functional, cell-based; details: Homo sapiens; remark: listed apart in the source
[11] = test system: HEK293; assay: NOD2 signaling inhibitors in MDP-stimulated cells, cell-based, uHTS, luminescence (AID 2001); type: functional; details: Homo sapiens
[12] = test system: Streptococcus sp. 'group A'; assay: growth inhibition of control SK(-) GAS strain, dose response, counter-screen for streptokinase expression inhibitor project, luminescence, kanamycin, BacTiterGlo, confirmation (AID 1900); type: functional, organism-based; details: read-out: EC50
[13] = HEp-2 cell cytotoxicity, dose response, cytotoxicity control for RSV inhibitor project, HTS (AID 2410); type: functional; details: human respiratory syncytial virus
[14] = molecular target: Nucleotide-binding oligomerization domain-containing protein 2 (Homo sapiens, UniProt Q9HC29); assay: NOD2 signaling inhibitors, cell-based, luminescence, uHTS, HEK293 (AID 1566); type: functional
[15] = molecular target: T4, Alkaline phosphatase, tissue-nonspecific isozyme (Homo sapiens, UniProt P05186); assay: human TNAP enzyme inhibitors, SAR follow-up, biochemical, luminescent, dose response (AID 1056)
T4 sequence (P05186 whole entry): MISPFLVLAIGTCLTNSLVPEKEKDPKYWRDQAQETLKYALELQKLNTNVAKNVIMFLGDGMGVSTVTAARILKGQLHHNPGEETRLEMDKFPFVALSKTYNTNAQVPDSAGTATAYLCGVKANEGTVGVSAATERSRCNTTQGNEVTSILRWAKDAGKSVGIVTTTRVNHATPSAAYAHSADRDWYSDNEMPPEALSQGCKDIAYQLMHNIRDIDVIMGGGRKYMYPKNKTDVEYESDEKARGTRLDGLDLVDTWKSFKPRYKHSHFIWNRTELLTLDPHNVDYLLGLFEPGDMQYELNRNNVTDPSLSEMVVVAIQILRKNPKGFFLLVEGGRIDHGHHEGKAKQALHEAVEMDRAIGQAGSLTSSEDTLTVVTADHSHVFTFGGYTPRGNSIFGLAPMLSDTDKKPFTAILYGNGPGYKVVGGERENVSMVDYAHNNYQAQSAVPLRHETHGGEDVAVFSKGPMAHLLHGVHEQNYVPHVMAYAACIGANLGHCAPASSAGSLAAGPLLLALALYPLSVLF

[16] = molecular target: Alkaline phosphatase, placental type (Homo sapiens, UniProt P05187); assay: PLAP enzyme inhibitors, confirmation, biochemical, luminescence (AID 1512); type: functional
[17] = molecular target: Glyceraldehyde-3-phosphate dehydrogenase (Homo sapiens, UniProt P04406)
[18] = molecular target: T5, CAAX prenyl protease 2 (Homo sapiens, UniProt Q9Y256); assay: human Rce1 protease inhibitors, dose response, biochemical, yeast membranes, quenched-peptide fluorescence, cherry-pick (AID 588849)
T5 sequence (Q9Y256 whole entry): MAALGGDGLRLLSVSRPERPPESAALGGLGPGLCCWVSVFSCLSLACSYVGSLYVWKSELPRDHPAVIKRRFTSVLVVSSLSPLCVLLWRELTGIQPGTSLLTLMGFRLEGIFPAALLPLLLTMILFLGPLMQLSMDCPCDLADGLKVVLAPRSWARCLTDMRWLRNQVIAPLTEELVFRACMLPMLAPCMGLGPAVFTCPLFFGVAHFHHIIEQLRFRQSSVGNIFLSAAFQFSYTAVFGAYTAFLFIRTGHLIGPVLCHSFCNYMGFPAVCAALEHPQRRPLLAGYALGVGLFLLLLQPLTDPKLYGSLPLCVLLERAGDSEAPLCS

[19] = molecular target: Trypsin (Sus scrofa, UniProt P00761); assay: porcine trypsin inhibitors, dose response, selectivity assay for Rce1 protease inhibitor project, biochemical, quenched peptide fluorescence, cherry-pick (AID 488789)
[20] = molecular target: CAAX prenyl protease 2 (Saccharomyces cerevisiae S288c, UniProt Q03530); type: biochemical
Sequence of CAAX prenyl protease 2 (Saccharomyces cerevisiae S288c, UniProt Q03530) (Q03530 whole entry): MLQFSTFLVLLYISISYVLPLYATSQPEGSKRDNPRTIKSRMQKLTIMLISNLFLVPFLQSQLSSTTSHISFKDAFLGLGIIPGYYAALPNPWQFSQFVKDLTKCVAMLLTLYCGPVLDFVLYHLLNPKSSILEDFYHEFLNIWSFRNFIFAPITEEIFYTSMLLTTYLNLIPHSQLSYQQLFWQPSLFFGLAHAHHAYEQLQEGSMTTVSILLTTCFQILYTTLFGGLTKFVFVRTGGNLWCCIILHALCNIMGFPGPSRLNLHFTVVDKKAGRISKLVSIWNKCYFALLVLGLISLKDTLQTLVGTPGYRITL

Sequence of Polyadenylate-binding protein 1 (P11940 whole entry): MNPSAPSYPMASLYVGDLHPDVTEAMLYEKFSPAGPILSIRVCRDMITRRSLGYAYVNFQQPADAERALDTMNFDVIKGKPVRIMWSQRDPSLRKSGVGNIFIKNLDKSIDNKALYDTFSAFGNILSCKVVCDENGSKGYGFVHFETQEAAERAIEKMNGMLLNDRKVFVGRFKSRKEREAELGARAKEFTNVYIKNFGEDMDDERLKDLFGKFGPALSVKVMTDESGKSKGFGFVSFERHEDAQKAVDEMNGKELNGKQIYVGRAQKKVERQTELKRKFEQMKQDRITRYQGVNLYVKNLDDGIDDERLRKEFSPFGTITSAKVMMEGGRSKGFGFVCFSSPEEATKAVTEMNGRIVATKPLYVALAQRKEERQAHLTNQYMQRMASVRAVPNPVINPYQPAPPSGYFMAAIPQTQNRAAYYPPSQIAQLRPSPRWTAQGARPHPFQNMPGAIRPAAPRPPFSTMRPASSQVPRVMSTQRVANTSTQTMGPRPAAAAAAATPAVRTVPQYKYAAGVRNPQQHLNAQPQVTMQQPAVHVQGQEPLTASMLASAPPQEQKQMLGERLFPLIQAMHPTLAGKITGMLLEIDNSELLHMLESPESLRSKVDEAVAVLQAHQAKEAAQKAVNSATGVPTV
Sequence of Trypsin (P00761 whole entry): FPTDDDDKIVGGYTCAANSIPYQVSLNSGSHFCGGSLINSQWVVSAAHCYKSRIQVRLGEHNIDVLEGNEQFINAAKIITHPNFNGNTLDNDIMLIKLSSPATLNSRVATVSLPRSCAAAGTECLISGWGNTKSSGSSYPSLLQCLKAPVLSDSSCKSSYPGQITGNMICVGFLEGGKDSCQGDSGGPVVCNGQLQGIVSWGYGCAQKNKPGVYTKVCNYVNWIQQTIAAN
Sequence of Alkaline phosphatase, placental type (P05187 whole entry): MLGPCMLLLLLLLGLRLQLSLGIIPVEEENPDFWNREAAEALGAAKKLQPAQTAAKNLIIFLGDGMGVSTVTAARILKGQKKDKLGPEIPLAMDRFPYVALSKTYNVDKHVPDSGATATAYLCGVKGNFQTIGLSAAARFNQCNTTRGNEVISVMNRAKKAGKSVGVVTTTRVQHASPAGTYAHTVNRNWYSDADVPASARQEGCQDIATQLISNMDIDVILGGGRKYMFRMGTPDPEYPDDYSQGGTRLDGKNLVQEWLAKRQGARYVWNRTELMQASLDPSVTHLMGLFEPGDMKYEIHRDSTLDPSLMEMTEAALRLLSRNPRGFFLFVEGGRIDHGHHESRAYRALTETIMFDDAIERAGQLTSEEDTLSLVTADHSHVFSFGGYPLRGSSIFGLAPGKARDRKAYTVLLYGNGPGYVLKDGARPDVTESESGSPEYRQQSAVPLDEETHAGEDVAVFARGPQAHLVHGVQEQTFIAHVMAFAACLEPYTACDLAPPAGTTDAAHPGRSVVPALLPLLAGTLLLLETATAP
Sequence of Glyceraldehyde-3-phosphate dehydrogenase (P04406 whole entry): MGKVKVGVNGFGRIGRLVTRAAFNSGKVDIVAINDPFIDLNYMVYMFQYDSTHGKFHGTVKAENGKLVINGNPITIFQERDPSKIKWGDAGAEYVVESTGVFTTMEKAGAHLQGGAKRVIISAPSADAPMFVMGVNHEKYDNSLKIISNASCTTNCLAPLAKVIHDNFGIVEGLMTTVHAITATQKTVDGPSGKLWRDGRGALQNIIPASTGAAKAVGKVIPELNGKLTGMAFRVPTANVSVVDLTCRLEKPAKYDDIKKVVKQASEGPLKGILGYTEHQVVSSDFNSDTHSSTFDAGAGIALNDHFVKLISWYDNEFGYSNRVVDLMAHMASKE
Sequence of Nucleotide-binding oligomerization domain-containing protein 2 (Q9HC29 whole entry, the tested form may be a part): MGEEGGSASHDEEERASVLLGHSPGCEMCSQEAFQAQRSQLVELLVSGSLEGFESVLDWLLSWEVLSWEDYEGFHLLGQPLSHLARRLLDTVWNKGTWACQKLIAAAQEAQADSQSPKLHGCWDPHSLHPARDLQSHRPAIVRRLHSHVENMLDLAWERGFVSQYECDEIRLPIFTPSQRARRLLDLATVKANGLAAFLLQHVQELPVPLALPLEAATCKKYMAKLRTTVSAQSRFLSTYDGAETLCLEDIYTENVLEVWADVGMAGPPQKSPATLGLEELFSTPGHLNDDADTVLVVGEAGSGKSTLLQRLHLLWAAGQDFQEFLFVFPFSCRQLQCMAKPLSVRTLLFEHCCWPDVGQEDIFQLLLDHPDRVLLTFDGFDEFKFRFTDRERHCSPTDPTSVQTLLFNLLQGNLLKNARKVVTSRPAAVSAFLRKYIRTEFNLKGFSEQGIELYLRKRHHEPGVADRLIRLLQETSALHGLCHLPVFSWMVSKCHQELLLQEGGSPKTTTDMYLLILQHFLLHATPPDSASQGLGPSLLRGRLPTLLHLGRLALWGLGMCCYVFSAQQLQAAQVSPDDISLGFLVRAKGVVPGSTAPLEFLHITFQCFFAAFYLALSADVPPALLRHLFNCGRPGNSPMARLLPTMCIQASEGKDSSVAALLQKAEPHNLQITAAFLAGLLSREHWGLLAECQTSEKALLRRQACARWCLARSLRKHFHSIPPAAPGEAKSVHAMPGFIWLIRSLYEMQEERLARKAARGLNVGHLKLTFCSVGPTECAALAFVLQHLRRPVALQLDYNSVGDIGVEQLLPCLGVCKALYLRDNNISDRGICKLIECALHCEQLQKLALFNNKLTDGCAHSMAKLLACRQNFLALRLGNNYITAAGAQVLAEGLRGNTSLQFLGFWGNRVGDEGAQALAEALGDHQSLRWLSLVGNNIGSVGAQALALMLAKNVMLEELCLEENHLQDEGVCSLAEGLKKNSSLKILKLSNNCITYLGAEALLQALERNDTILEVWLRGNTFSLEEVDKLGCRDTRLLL

## COc1ccc(NC(=O)CSc2ccc(-c3ccco3)nn2)c(OC)c1
[1]
  IC50: 86.5 µM (active)
[2]
  IC50: 5.8 µM (active)
[3]
  IC50: > 100 µM (inactive)

## Cc1csc2c(N3CCN(C(=O)Nc4ccc(Cl)c(Cl)c4)CC3)ncnc12
[4]
  EC50: 1.88 µM (active)
[5]
  IC50: 4.78 µM (active)
[6]
  EC50: 14.8 µM (active)
[7]
  IC50: 8.45 µM (active)
[8]
  EC50: 57.1 µM (active)
[9]
  EC50: 4.76 µM (active)
[10]
  IC50: > 20 µM (inactive)
[11]
  IC50: 3.23 µM (active)
[12]
  EC50: 3.4 µM (active)
[13]
  CC50: 43.7 µM (active)
[14]
  EC50: 5 µM (active)

## CCCc1n[nH]c2c1C(=O)CC(C)(C)C2
[15]
  IC50: 14.4 µM (active)
[16]
  IC50: > 100 µM (inactive)
[17]
  IC50: > 100 µM (not active)

## CCn1c(=O)c(-c2ccccc2)c(O)c2ccccc21
[18]
  AC50: 13.9 µM (active)
[19]
  AC50: 7.88 µM (active)
[20]
  AC50: 11.2 µM (active)

## Cc1ccc(-c2nc3ccc(C)cn3c2CC(=O)N(C)C)cc1
[20]
  AC50: 16.8 µM (active)
